Experimental data published in ChEMBL document CHEMBL5346899, “PKM2/PDK1 dual-targeted shikonin derivatives restore the sensitivity of EGFR-mutated NSCLC cells to gefitinib by remodeling glucose metabolism” (Eur J Med Chem, 2023).
Calls of active or inactive are those of the source. The rule behind the calls is not given here.

What was measured:
HCC827 [1] = assay: cells; type: functional, cell-based; settings: Homo sapiens, HCC827, 24 h
Description: Antiproliferative activity against human HCC827 cells assessed as inhibition of cell growth incubated for 24 hrs by CCK-8 assay

NCI-H1299 [2] = assay: Induction of apoptosis in human NCI-H1299 cells assessed as early apoptotic cells at 2 micromol/L incubated for 24 hrs by Annexin V-FITC/PI staining based analysis (reference value: 2.43%); type: functional; settings: dose 2 µmol/L, at 2 µM
NCI-H1299 [3] = assay: Induction of apoptosis in human NCI-H1299 cells assessed as late apoptotic cells at 2 micromol/L incubated for 24 hrs by Annexin V-FITC/PI staining based analysis (reference value: 14.9%); type: functional; settings: dose 2 µmol/L, at 2 µM
A549 = assay: Induction of apoptosis in human A549 cells assessed as late apoptotic cells at 2 micromol/L incubated for 24 hrs by Annexin V-FITC/PI staining based analysis (reference value: 3.18%); type: functional; settings: dose 2 µmol/L, at 2 µM
NCI-H1975 [4] = assay: Induction of apoptosis in human NCI-H1975 cells assessed as early apoptotic cells at 1 micromol/L incubated for 24 hrs by Annexin V-FITC/PI staining based analysis (reference value: 1.88%); type: functional; settings: dose 1 µmol/L, at 1 µM
NCI-H1975 [5] = assay: Induction of apoptosis in human NCI-H1975 cells assessed as early apoptotic cells at 2 micromol/L incubated for 24 hrs by Annexin V-FITC/PI staining based analysis (reference value: 1.88%); type: functional; settings: dose 2 µmol/L, at 2 µM
NCI-H1975 [6] = assay: Induction of apoptosis in human NCI-H1975 cells assessed as late apoptotic cells at 1 micromol/L incubated for 24 hrs by Annexin V-FITC/PI staining based analysis (reference value: 2.66%); type: functional; settings: dose 1 µmol/L, at 1 µM
HCC827 [7] = assay: Induction of apoptosis in human HCC827 cells assessed as late apoptotic cells at 1 micromol/L incubated for 24 hrs by Annexin V-FITC/PI staining based analysis (reference value: 8.42%); type: functional; settings: dose 1 µmol/L, at 1 µM
NCI-H1975 [8] = assay: Induction of apoptosis in human NCI-H1975 cells assessed as regulation of Caspase-9 expression by Western blot analysis; type: functional, cell-based
NCI-H1975 [9] = assay: Induction of apoptosis in human NCI-H1975 cells assessed as regulation of Caspase-3 expression by Western blot analysis; type: functional, cell-based
NCI-H1975 [10] = assay: Induction of apoptosis in human NCI-H1975 cells assessed as regulation of Fas expression by Western blot analysis; type: functional, cell-based
NCI-H1975 [11] = assay: Induction of apoptosis in human NCI-H1975 cells assessed as regulation of caspase-8 expression by Western blot analysis; type: functional, cell-based
NCI-H1975 [12] = assay: Induction of mitochondrial transmembrane potential dissipation in human NCI-H1975 cells assessed as cells with high mitochondrial transmembrane potential at 0.5 micromol/L by FL-1/FL-2 channel based fluorescence analysis (reference value: 97.4%); type: functional; settings: dose 0.5 µmol/L; at 0.5 µM
NCI-H1975 [13] = assay: Induction of mitochondrial transmembrane potential dissipation in human NCI-H1975 cells assessed as cells with low mitochondrial transmembrane potential at 0.5 micromol/L by FL-1/FL-2 channel based fluorescence analysis (reference value: 2.13%); type: functional; settings: dose 0.5 µmol/L; at 0.5 µM
NCI-H1299 [14] = assay: Induction of intracellular ROS accumulation in human NCI-H1299 cells; type: functional, cell-based
Pyruvate kinase PKM [15] = biological target: T1, Pyruvate kinase PKM (Homo sapiens, UniProt P14618); assay: Binding affinity to PKM2 (unknown origin) assessed as dissociation constant associated for 60 secs and dissociated for 90 secs by bio-layer interferometry analysis
Target sequence in this assay (P14618 whole entry): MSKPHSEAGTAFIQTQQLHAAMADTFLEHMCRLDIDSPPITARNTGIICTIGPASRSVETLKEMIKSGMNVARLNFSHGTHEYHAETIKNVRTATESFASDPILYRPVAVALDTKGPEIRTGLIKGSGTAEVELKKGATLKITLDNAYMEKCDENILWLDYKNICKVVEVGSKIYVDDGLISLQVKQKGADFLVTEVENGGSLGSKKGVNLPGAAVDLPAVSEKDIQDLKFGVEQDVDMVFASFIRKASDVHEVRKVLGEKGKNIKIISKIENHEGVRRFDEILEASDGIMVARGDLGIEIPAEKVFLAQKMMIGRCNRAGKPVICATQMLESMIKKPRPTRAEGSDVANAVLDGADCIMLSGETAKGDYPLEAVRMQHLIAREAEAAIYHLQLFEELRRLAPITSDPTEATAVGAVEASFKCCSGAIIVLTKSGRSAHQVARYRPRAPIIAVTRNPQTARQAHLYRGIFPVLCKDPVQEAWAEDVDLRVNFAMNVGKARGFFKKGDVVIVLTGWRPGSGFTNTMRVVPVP

Pyruvate kinase PKM [16] = biological target: T1, Pyruvate kinase PKM; assay: Activation of PKM2 in human NCI-H1975 cells at 1 to 2 micromol/L by Western blot analysis; type: cell-based; settings: filed as activator, dose 1-2 µmol/L
Target sequence in this assay (P14618 2-531 limits assumed): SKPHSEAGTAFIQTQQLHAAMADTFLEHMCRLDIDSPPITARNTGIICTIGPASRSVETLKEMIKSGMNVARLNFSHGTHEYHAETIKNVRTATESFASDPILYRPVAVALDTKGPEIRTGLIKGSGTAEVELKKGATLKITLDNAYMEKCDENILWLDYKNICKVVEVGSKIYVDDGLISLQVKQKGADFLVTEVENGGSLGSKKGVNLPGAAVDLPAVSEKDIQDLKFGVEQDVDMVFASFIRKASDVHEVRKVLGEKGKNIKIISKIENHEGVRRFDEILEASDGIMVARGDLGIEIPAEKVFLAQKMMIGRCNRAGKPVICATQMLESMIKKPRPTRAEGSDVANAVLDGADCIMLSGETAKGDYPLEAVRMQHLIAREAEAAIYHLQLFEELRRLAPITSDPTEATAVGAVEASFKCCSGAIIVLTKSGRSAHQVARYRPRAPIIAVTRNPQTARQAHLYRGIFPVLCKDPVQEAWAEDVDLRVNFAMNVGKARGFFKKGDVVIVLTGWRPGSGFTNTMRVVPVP

Pyruvate kinase PKM [17] = biological target: T1, Pyruvate kinase PKM; assay: Activation of PKM2 in human HCC827 cells at 1 to 2 micromol/L by Western blot analysis; type: cell-based; settings: filed as activator, dose 1-2 µmol/L
Target sequence in this assay (P14618 2-531 limits assumed): as above

Pyruvate kinase PKM [18] = biological target: T1, Pyruvate kinase PKM; assay: Activation of PKM2 in siRNA mediated PKM2 knockdown human HCC827 cells at 1 to 2 micromol/L by Western blot analysis; type: cell-based; settings: dose 1-2 µmol/L
Target sequence in this assay (P14618 2-531 limits assumed): as above

NCI-H1975 [19] = assay: Effect on PKM2 protein expression in human NCI-H1975 cells at 1 to 2 micromol/L by Western blot analysis; type: functional, cell-based; settings: dose 1-2 µmol/L
HCC827 [20] = assay: Effect on PKM2 protein expression in human HCC827 cells at 1 to 2 micromol/L by Western blot analysis; type: functional, cell-based; settings: dose 1-2 µmol/L
[21] = biological target: [Pyruvate dehydrogenase (acetyl-transferring)] kinase isozyme 1, mitochondrial (Homo sapiens, UniProt Q15118); assay: Binding affinity to PDK1 (unknown origin) assessed as dissociation constant associated for 60 secs and dissociated for 90 secs by bio-layer interferometry analysis
HCC827 [22] = assay: Upregulation of PDH protein expression in human HCC827 cells at 1 to 2 micromol/L by Western blot analysis; type: functional, cell-based; settings: dose 1-2 µmol/L
NCI-H1975 [23] = assay: Induction of apoptosis in human NCI-H1975 cells with siRNA mediated […] knockdown assessed as late apoptotic cells at 2 micromol/L incubated for 24 hrs by Annexin V-FITC/PI staining based analysis (reference value: 6.25%); type: functional; settings: dose 2 µmol/L, at 2 µM
NCI-H1975 [24] = assay: Antiproliferative activity against human NCI-H1975 cells transfected with siRNA assessed as inhibition of cell growth incubated for 24 hrs by CCK-8 assay; type: functional, cell-based; settings: NCI-H1975, 24 h
HCC827 [25] = assay: Antiproliferative activity against human HCC827 cells transfected with siRNA assessed as inhibition of cell growth incubated for 24 hrs by CCK-8 assay; type: functional, cell-based; settings: HCC827, 24 h
NCI-H1975 [26] = assay: Induction of oxidative phosphorylation in human NCI-H1975 cells assessed as increase in ATP production by luminescence based assay; type: functional, cell-based
[27] = Toxicity in athymic nu/nu mouse xenografted with human NCI-H1975 cells assessed as reduction in body weight at 2.4 to 4.8 mg/kg, ip administered every 2 days for 11 days; type: organism-based; settings: in vivo, 264 h, dose 2.4-4.8 mg/kg, time 11 day
NCI-H1975 [28] = assay: Antitumor activity against human NCI-H1975 cells xenografted in athymic nu/nu mouse assessed as induction of apoptosis in tumor at 2.4 to 4.8 mg/kg, ip administered every 2 days for 11 days by TUNEL assay; type: functional, organism-based; settings: dose 2.4-4.8 mg/kg, time 11.0 day
[29] = Acute toxicity in ICR mouse assessed as damage in vital organs at 2.4 to 38.4 mg/kg, ip measured after 15 days by H and E staining based analysis; type: organism-based; settings: in vivo, 360 h, dose 2.4-38.4 mg/kg, time 15 day
NCI-H1975 [30] = assay: Induction of apoptosis in human NCI-H1975 cells assessed as live cells at 0.5 micromol/L incubated for 24 hrs by Annexin V-FITC/PI staining based analysis (reference value: 88.7%); type: functional; settings: dose 0.5 µmol/L, at 0.5 µM
NCI-H1975 [31] = assay: Induction of apoptosis in human NCI-H1975 cells assessed as early apoptotic cells at 0.5 micromol/L incubated for 24 hrs by Annexin V-FITC/PI staining based analysis (reference value: 2.55%); type: functional; settings: dose 0.5 µmol/L, at 0.5 µM
NCI-H1975 [32] = assay: Induction of apoptosis in human NCI-H1975 cells assessed as dead cells at 0.5 micromol/L incubated for 24 hrs by Annexin V-FITC/PI staining based analysis (reference value: 0.103%); type: functional; settings: dose 0.5 µmol/L, at 0.5 µM
NCI-H1975 [33] = assay: Induction of apoptosis in human NCI-H1975 cells assessed as late apoptotic cells at 10 micromol/L incubated for 24 hrs by Annexin V-FITC/PI staining based analysis (reference value: 8.61%); type: functional; settings: dose 10 µmol/L, at 10 µM

[Pyruvate dehydrogenase (acetyl-transferring)] kinase isozyme 1, mitochondrial, sequence (Q15118 whole entry): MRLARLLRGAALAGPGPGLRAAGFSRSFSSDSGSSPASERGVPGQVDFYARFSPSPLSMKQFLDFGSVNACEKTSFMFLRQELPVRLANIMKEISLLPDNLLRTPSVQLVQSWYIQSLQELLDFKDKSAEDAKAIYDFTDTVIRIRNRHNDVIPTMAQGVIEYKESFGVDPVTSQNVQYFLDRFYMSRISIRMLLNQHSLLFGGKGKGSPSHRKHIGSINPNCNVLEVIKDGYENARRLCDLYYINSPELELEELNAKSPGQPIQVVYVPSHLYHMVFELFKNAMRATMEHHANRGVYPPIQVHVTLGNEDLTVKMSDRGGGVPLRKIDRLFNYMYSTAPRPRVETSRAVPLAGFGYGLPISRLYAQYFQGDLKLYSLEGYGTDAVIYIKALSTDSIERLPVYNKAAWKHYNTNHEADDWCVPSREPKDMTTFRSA

COC(=O)[C@H](CS[C@H](CC=C(C)C)C1=CC(=O)c2c(O)ccc(O)c2C1=O)NC(=O)CCCC[C@@H]1CCSC(c2ccccc2C)S1 (some centres undefined) gave an IC50 (HCC827 [1]) of 5.19 µM, an Activity (NCI-H1299 [2]) of 2.68% and an Activity (NCI-H1299 [3]) of 24.5%. For the same compound, the Activity (A549) was 6.46%, the Activity (NCI-H1975 [4]) was 3.84% and the Activity (NCI-H1975 [5]) was 22.2%. For the same compound, the Activity (NCI-H1975 [6]) was 23.6%, the Activity (HCC827 [7]) was 12.1% and the Activity (NCI-H1975 [8]) was “Active”. The Activity (NCI-H1975 [9]) was “Active”, the Activity (NCI-H1975 [10]) was “Active” and the Activity (NCI-H1975 [11]) was “Active”. The Activity (NCI-H1975 [12]) was 88.1%, the Activity (NCI-H1975 [13]) was 11.8% and the Activity (NCI-H1299 [14]) was “Active”. The Kd (Pyruvate kinase PKM [15]) was 28 µM, the Activity (Pyruvate kinase PKM [16]) was “Active” and the Activity (Pyruvate kinase PKM [17]) was “Active”. For the same compound, the Activity (Pyruvate kinase PKM [18]) was “inactive”, the Activity (NCI-H1975 [19]) was “inactive” and the Activity (HCC827 [20]) was “inactive”. For the same compound, the Kd [21] was 12.1 µM, the Activity (HCC827 [22]) was “Active” and the Activity (NCI-H1975 [23]) was 8.16%. For the same compound, the IC50 (NCI-H1975 [24]) was 3.5 µM, the IC50 (HCC827 [25]) was 6 µM and the Activity (NCI-H1975 [26]) was “Active”. The Activity [27] was “Non-Toxic”, the Activity (NCI-H1975 [28]) was “Active” and the Activity [29] was “Non-Toxic”. The Activity (NCI-H1975 [30]) was 87.3%, the Activity (NCI-H1975 [31]) was 1.54% and the Activity (NCI-H1975 [32]) was 0%. It also gave an Activity (NCI-H1975 [33]) of 9.56%.
